Source: patent publication EP4245293B1, “USE OF SUGAR AMINES AS COMPLEXING AGENTS” (Clariant International Ltd, priority 2022, dated 2023)

Assays:
Type in all cases: physicochemical
[1] = Confirmation of complex formation with single chelants, Cu2+ ions
[2] = Confirmation of complex formation with single chelants, Fe3+ ions
[3] = Complexing ability test vs. EDTA (color changes and precipitate formation); conditions: for Result: Fe^3+ solution 0,2 mmol/L, observed color and precipitate; for chelating strength for Iron^3+ ions relative to EDTA: both EDTA and chelant present, judged from the colored complex formed
Experimental: The relative complexing ability of the chelant is evaluated vs. EDTA by observing color changes and precipitate formation.
To Fe^3+ and Cu^2+ solutions (c = 0,2 mmol/L), solutions of chelants are added: • Na4EDTA at 0,4 mmol/L • Na4EDTA at 2 mmol/L • Only chelant (Dimethylglucamine or Piroctone Olamine) at 0,6 mmol/L • Chelant (Dimethylglucamine or Piroctone Olamine) at 0,6 mmol/L + Na4EDTA 0,4 mmol/L • Chelant (Dimethylglucamine or Piroctone Olamine) at 0,6 mmol/L + Na4EDTA 2 mmol/L

[4] = Complexing ability test of Dimethylglucamine vs. Aminomethylpropanol; conditions: for Result: Cu^2+ solution 0,2 mmol/L, each chelant at 0.6 mmol/L, observed color and precipitate
Experimental: The relative complexing ability of the chelant Dimethylglucamine is evaluated vs. Aminomethylpropanol by observing color changes and precipitate formation. In particular Aminomethylpropanol was chosen since in the previous test c) it was shown that Aminomethylpropanol makes complex with Copper that differs in color of Copper complex with Dimethylglucamine. Therefore, it is possible to evaluate the strength of complexation of Aminomethylpropanol and Dimethylglucamine when both chelants are present in solution of Copper^2+ ions by observing the color of solution. To Cu^2+ solutions (c = 0,2 mmol/L), solutions of chelants are added: • Aminomethylpropanol at 0,6 mmol/L • Dimethylglucamine at 0,6 mmol/L • Aminomethylpropanol at 0,6 mmol/L + Dimethylglucamine 0,6 mmol/L

[5] = Cu^2+ solution 0,2 mmol/L with single chelant
[6] = Cu^2+ solution 0,2 mmol/L, single chelant added at c=0,2 mmol/L, observed color and precipitate
[7] = Fe^3+ solution 0,2 mmol/L with single chelant
[8] = Fe^3+ solution 0,2 mmol/L, single chelant added at c=0,2 mmol/L, observed color and precipitate

Row | Compound | Result [1] | pH [1] | Result [2] | pH [2] | Result ([3]; EDTA 0.4 mmol/L, alone or with chelant at 0,6 mmol/L) | Result ([3]; EDTA 2 mmol/L, alone or with chelant at 0,6 mmol/L) | pH [1, 5] | Result [1, 6] | Result [4] | pH [2, 7] | Result [2, 8] | complexes formed with Copper^2+ ions [1] | complex formed in presence of Aminomethylpropanol and Cu^2+ ions ([4]; both chelants present at 0,6 mmol/L) | complexes formed with Iron^3+ ions [2] | Result ([3]; only chelant at 0,6 mmol/L) | chelating strength for Iron^3+ ions relative to EDTA [3]
1 | O=C(O)CN(CCN(CC(=O)O)CC(=O)O)CC(=O)O [EDTA, ethylenediaminetetraacetic acid] | Clear, light blue solution | 10.0 | Clear, very slightly yellowish solution | 10.6 | Clear, very slightly yellowish solution | Clear, very slightly yellowish solution |  |  |  |  |  |  |  |  |  | 
2 | CC(C)(N)CO [Aminomethylpropanol] |  |  |  |  |  |  | 9.2 | Clear solution with distinct brown precipitate | Clear solution with distinct brown precipitate | 4.0 | Clear solution with distinct orange precipitate |  |  |  |  | 
3 | CN(C)C[C@H](O)[C@@H](O)[C@H](O)[C@H](O)CO [Dimethylglucamine, N,N-dimethylglucamine] |  |  |  |  |  |  | 6.5 | Clear, light blue solution | Clear light blue solution | 3.4 | Clear solution with distinct orange precipitate | blue complexes | distinct blue complex of Dimethylglucamine is formed instead of brown complex of Aminomethylpropanol and Cu^2+ ions | distinct orange complexes | Clear solution with distinct orange precipitate | stronger chelating agent than EDTA
4 | NCC(=O)O [Glycine] |  |  |  |  |  |  | 4.6 | Clear, slightly bluish solution |  | 3.3 | Clear solution with distinct orange precipitate |  |  |  |  | 
5 | Cc1cc(CC(C)CC(C)(C)C)n(O)c(=O)c1.NCCO (stereo not shown) [Piroctone Olamine] |  |  |  |  |  |  | 8.3 | Turbid, light blue solution |  | 3.8 | Turbid solution with distinct orange precipitate |  |  |  | Turbid yellowish solution with distinct orange precipitate | stronger than EDTA
